# Columns and labels:
# Type in all cases: in vivo
# [1] = test system: barnyardgrass (Echinochloa crus-galli); assay: Test A preemergence, visual injury rating; conditions: for Barnyardgrass plant response rating: 0 to 100 scale (0 no effect, 100 complete control)
# How it was run: (§1)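 Scoring: eye-based comparison with untreated controls, 0 for no effect through 100 for complete control, at about day 10. Treatments: directed soil spray preemergence; foliar spray postemergence on 2–10 cm plants at the one- to two-leaf stage. Medium: loam soil with sand.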
# corn (Zea mays) [2] = assay: Test A preemergence, visual injury rating; conditions: 1000 g ai/ha, 0 to 100 scale (0 no effect, 100 complete control)
# How it was run: as §1
# [3] = test system: giant foxtail (Setaria faberii); assay: Test A preemergence, visual injury rating; conditions: for Foxtail, Giant plant response rating: 0 to 100 scale (0 no effect, 100 complete control)
# How it was run: as §1
# [4] = test system: large (Lg) crabgrass (Digitaria sanguinalis); assay: Test A preemergence, visual injury rating; conditions: 1000 g ai/ha, 0 to 100 scale (0 no effect, 100 complete control)
# How it was run: as §1
# [5] = test system: morningglory (Ipomoea spp.); assay: Test A preemergence, visual injury rating; conditions: 1000 g ai/ha, 0 to 100 scale (0 no effect, 100 complete control)
# How it was run: as §1
# [6] = test system: pigweed (Amaranthus retroflexus); assay: Test A preemergence, visual injury rating; conditions: for Pigweed plant response rating: 0 to 100 scale (0 no effect, 100 complete control)
# How it was run: as §1
# [7] = test system: velvetleaf (Abutilon theophrasti); assay: Test A preemergence, visual injury rating; conditions: 1000 g ai/ha, 0 to 100 scale (0 no effect, 100 complete control)
# How it was run: as §1
# [8] = test system: wheat (Triticum aestivum); assay: Test A preemergence, visual injury rating; conditions: 1000 g ai/ha, 0 to 100 scale (0 no effect, 100 complete control)
# How it was run: as §1
# [9] = test system: barnyardgrass (Echinochloa crus-galli); assay: Test A postemergence, visual injury rating; conditions: 0 is no effect, 100 is complete control
# How it was run: as §1
# corn (Zea mays) [10] = assay: Test A postemergence, visual injury rating; conditions: 0 is no effect, 100 is complete control
# How it was run: as §1
# [11] = test system: giant foxtail (Setaria faberii); assay: Test A postemergence, visual injury rating; conditions: 0 is no effect, 100 is complete control
# How it was run: as §1
# [12] = test system: large (Lg) crabgrass (Digitaria sanguinalis); assay: Test A postemergence, visual injury rating; conditions: 1000 g ai/ha, 0 is no effect, 100 is complete control
# How it was run: as §1
# [13] = test system: morningglory (Ipomoea spp.); assay: Test A postemergence, visual injury rating; conditions: 1000 g ai/ha, 0 is no effect, 100 is complete control
# How it was run: as §1
# [14] = test system: pigweed (Amaranthus retroflexus); assay: Test A postemergence, visual injury rating; conditions: 0 is no effect, 100 is complete control
# How it was run: as §1
# [15] = test system: wheat (Triticum aestivum); assay: Test A postemergence, visual injury rating; conditions: 0 is no effect, 100 is complete control
# How it was run: as §1
# [16] = test system: Italian ryegrass (Lolium multiflorum); assay: Test A preemergence, visual injury rating
# How it was run: as §1
# kochia (Kochia scoparia) [17] = assay: Test A preemergence, visual injury rating
# How it was run: as §1
# [18] = test system: ragweed (common ragweed, Ambrosia elatior); assay: Test A preemergence, visual injury rating
# How it was run: as §1
# [19] = test system: Italian ryegrass (Lolium multiflorum); assay: Test A postemergence, visual injury rating; conditions: 0 is no effect, 100 is complete control
# How it was run: as §1
# [20] = test system: blackgrass (Alopecurus myosuroides); assay: Test A postemergence, visual injury rating; conditions: 0 is no effect, 100 is complete control
# How it was run: as §1
# [21] = test system: galium (catchweed bedstraw, Galium aparine); assay: Test A postemergence, visual injury rating; conditions: 0 is no effect, 100 is complete control
# How it was run: as §1
# kochia (Kochia scoparia) [22] = assay: Test A postemergence, visual injury rating; conditions: 0 is no effect, 100 is complete control
# How it was run: as §1
# [23] = test system: ragweed (common ragweed, Ambrosia elatior); assay: Test A postemergence, visual injury rating; conditions: 0 is no effect, 100 is complete control
# How it was run: as §1
# [24] = test system: barnyardgrass (Echinochloa crus-galli); assay: Test B flooded paddy test, plant response rating; conditions: 250 g ai/ha; Flood; scale of 0 to 100 where 0 is no effect and 100 is complete control; 13 to 15 days
# How it was run: (§2)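 Greenhouse pots flooded to 3 cm above soil at time of treatment received compound via the water, which stayed at that level.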
# [25] = test system: ducksalad (Heteranthera limosa); assay: Test B flooded paddy test, plant response rating; conditions: 250 g ai/ha; Flood; scale of 0 to 100 where 0 is no effect and 100 is complete control; 13 to 15 days
# How it was run: as §2
# rice (Oryza sativa) [26] = assay: Test B flooded paddy test, plant response rating; conditions: 250 g ai/ha; Flood; scale of 0 to 100 where 0 is no effect and 100 is complete control; 13 to 15 days
# How it was run: as §2
# [27] = test system: sedge, umbrella (small-flower umbrella sedge, Cyperus difformis); assay: Test B flooded paddy test, plant response rating; conditions: 250 g ai/ha; Flood; scale of 0 to 100 where 0 is no effect and 100 is complete control; 13 to 15 days
# How it was run: as §2
# [28] = test system: barnyardgrass (Echinochloa crus-galli); assay: Test C flooded paddy test, plant response rating; conditions: flood, scale 0 to 100
# Source text: (§3) At the same time, plants selected from these crop and weed species and also chickweed (common chickweed, Stellaria media), buckwheat, wild (wild buckwheat, Polygonum convolvulus), wild mustard (Sinapis arvensis), field poppy (Papaver rhoeas), field violet (Viola arvensis), geranium, cutleaf (cutleaf geranium, Geranium dissectum), Canada thistle (Cirsium arvense), and speedwell (bird's-eye speedwell, Veronica persica), were planted in pots containing Sunshine Redi-Earth® planting medium comprising spaghnum peat moss, vermiculite, starter nutrients and dolomitic limestone and treated with postemergence applications of test chemicals formulated in the same manner. Plants ranged in height from 2 to 18 cm (1- to 4-leaf stage) for postemergence treatments. Treated plants and controls were maintained in a greenhouse for 13 to 15 d, after which time all species were compared to controls and visually evaluated. Plant response ratings, summarized in Table C, are based on a scale of 0 to 100 where 0 is no effect and 100 is complete control. A dash (-) response means no test result.
# (§4) Plant species in the flooded paddy test consisted of rice (Oryza sativa), sedge, umbrella (small-flower umbrella sedge Cyperus difformis), ducksalad (Heteranthera limosa), and barnyardgrass (Echinochloa crus-galli) grown to the 2-leaf stage for testing. At time of treatment, test pots were flooded to 3 cm above the soil surface, treated by application of test compounds directly to the paddy water, and then maintained at that water depth for the duration of the test.
# [29] = test system: ducksalad (Heteranthera limosa); assay: Test C flooded paddy test, plant response rating; conditions: flood, scale 0 to 100
# Source text: as §3, §4
# rice (Oryza sativa) [30] = assay: Test C flooded paddy test, plant response rating; conditions: flood, scale 0 to 100
# Source text: as §3, §4
# [31] = test system: sedge, umbrella (small-flower umbrella sedge Cyperus difformis); assay: Test C flooded paddy test, plant response rating; conditions: flood, scale 0 to 100
# Source text: as §3, §4
# [32] = 31 g ai/ha, 0 to 100 scale, 0 no effect, 100 complete control
# [33] = 125 g ai/ha, 0 to 100 scale (0 no effect, 100 complete control)
# [34] = 31 g ai/ha, 0 to 100 scale, approximately 10 days
smiles,measurement,setting,value
CC(=NOC(C)(C)C)c1ccccc1Oc1ncc(Cl)cn1 [Compound 59],Barnyardgrass plant response rating,[1]; 1000 g ai/ha,20
same,Corn plant response rating,corn (Zea mays) [2],0
same,"Foxtail, Giant plant response rating",[3]; 1000 g ai/ha,30
same,"Crabgrass, Large plant response rating",[4],80
same,Morningglory plant response rating,[5],0
same,Pigweed plant response rating,[6]; 1000 g ai/ha,30
same,Velvetleaf plant response rating,[7],0
same,Wheat plant response rating,[8],0
same,Barnyardgrass plant response rating (0 to 100 scale),[9]; 1000 g ai/ha,0
same,Corn plant response rating (0 to 100 scale),corn (Zea mays) [10]; 1000 g ai/ha,20
same,"Foxtail, Giant plant response rating (0 to 100 scale)",[11]; 1000 g ai/ha,10
same,"Crabgrass, Large plant response rating (0 to 100 scale)",[12],10
same,Morningglory plant response rating (0 to 100 scale),[13],0
same,Pigweed plant response rating (0 to 100 scale),[14]; 1000 g ai/ha,30
same,Wheat plant response rating (0 to 100 scale),[15]; 1000 g ai/ha,30
FC(F)(F)CCOCc1c(Br)cccc1Oc1ncc(Cl)cn1 [Compound 66],"Plant response rating, Ryegrass, Italian",[16]; [32],0
same,"Ryegrass, Italian plant response rating",[16]; [33],30
same,"Plant response rating, Barnyardgrass",[1]; [32],90
same,Barnyardgrass plant response rating,[1]; 125 g ai/ha,100
same,"Plant response rating, Foxtail, Giant",[3]; [32],70
same,"Foxtail, Giant plant response rating",[3]; 125 g ai/ha,100
same,"Plant response rating, Kochia",kochia (Kochia scoparia) [17]; [32],0
same,Kochia plant response rating,kochia (Kochia scoparia) [17]; [33],40
same,"Plant response rating, Pigweed",[6]; [32],20
same,Pigweed plant response rating,[6]; 125 g ai/ha,100
same,"Plant response rating, Ragweed",[18]; [32],0
same,Ragweed plant response rating,[18]; [33],100
same,"Ryegrass, Italian plant response rating",[19]; [34],0
same,"Ryegrass, Italian plant response rating (0 to 100 scale)",[19]; 125 g ai/ha,50
same,Barnyardgrass plant response rating,[9]; [34],40
same,Barnyardgrass plant response rating (0 to 100 scale),[9]; 125 g ai/ha,100
same,Blackgrass plant response rating,[20]; [34],10
same,Blackgrass plant response rating (0 to 100 scale),[20]; 125 g ai/ha,100
same,Corn plant response rating,corn (Zea mays) [10]; [34],20
same,Corn plant response rating (0 to 100 scale),corn (Zea mays) [10]; 125 g ai/ha,70
same,Galium plant response rating,[21]; [34],30
same,Galium plant response rating (0 to 100 scale),[21]; 125 g ai/ha,100
same,"Foxtail, Giant plant response rating",[11]; [34],30
same,"Foxtail, Giant plant response rating (0 to 100 scale)",[11]; 125 g ai/ha,100
same,Kochia plant response rating,kochia (Kochia scoparia) [22]; [34],20
same,Kochia plant response rating (0 to 100 scale),kochia (Kochia scoparia) [22]; 125 g ai/ha,50
same,Pigweed plant response rating,[14]; [34],40
same,Pigweed plant response rating (0 to 100 scale),[14]; 125 g ai/ha,100
same,Ragweed plant response rating,[23]; [34],0
same,Ragweed plant response rating (0 to 100 scale),[23]; 125 g ai/ha,20
same,Wheat plant response rating,[15]; [34],0
same,Wheat plant response rating (0 to 100 scale),[15]; 125 g ai/ha,30
same,"Plant response rating, Barnyardgrass",[24],30
same,"Plant response rating, Ducksalad",[25],100
same,"Plant response rating, Rice",rice (Oryza sativa) [26],0
same,"Plant response rating, Sedge, Umbrella",[27],95
same,Barnyardgrass plant response rating,[28]; 31 g ai/ha,0
same,Barnyardgrass plant response rating,[28]; 62 g ai/ha,0
same,Barnyardgrass plant response rating,[28]; 125 g ai/ha,25
same,Barnyardgrass plant response rating,[28]; 250 g ai/ha,80
same,Ducksalad plant response rating,[29]; 31 g ai/ha,40
same,Ducksalad plant response rating,[29]; 62 g ai/ha,80
same,Ducksalad plant response rating,[29]; 125 g ai/ha,85
same,Ducksalad plant response rating,[29]; 250 g ai/ha,95
same,Rice plant response rating,rice (Oryza sativa) [30]; 31 g ai/ha,0
same,Rice plant response rating,rice (Oryza sativa) [30]; 62 g ai/ha,0
same,Rice plant response rating,rice (Oryza sativa) [30]; 125 g ai/ha,0
same,Rice plant response rating,rice (Oryza sativa) [30]; 250 g ai/ha,20
same,"Sedge, Umbrella plant response rating",[31]; 31 g ai/ha,40
same,"Sedge, Umbrella plant response rating",[31]; 62 g ai/ha,75
same,"Sedge, Umbrella plant response rating",[31]; 125 g ai/ha,85
same,"Sedge, Umbrella plant response rating",[31]; 250 g ai/ha,95

# Source: patent publication US11053204B2, “Pyrimidinyloxy benzene derivatives as herbicides” (FMC Corporation, priority 2015, dated 2021)
